From ChEMBL document CHEMBL1201862, “PubChem BioAssay data set” (2004)
Calls of active or inactive are those of the source.

Columns and labels:
[1] = A375 melanoma cell viability loss, dose response, counter-screen for MITF inhibitor project, CellTiter-Glo luminescence, dry powder, set 4 (AID 624364); type: functional, cell-based; conditions: A-375;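 also: A375 melanoma cells are MITF independent so this is a counter screen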
[2] = A375 melanoma cell cytotoxicity, dose response, counter-screen for MITF inhibitor project, CellTiter-Glo luminescence, dry powder, set 2 (AID 624489); type: functional, cell-based; conditions: A-375;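 also: actives are compounds lowering A375 viability meaning general cytotoxicity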
Nonstructural protein 1 = Nonstructural protein 1 (Influenza A virus, UniProt Q194T2); type: functional, Influenza A virus (A/California/07/2009(H1N1))
Protein Tat = Protein Tat (Human immunodeficiency virus type 1 group M subtype B (isolate HXB2)(HIV-1), UniProt P04608); type: functional;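 also: tat binding to TAR RNA read out by fluorescence polarization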
[3] = biological target: RNA-editing ligase 1, mitochondrial (Trypanosoma brucei brucei, UniProt P86926); assay: TbREL1 ligase inhibitors, dose response, biochemical, fluorescence, Trypanosoma brucei (AID 1117295); type: functional
Kallikrein-7 = Kallikrein-7 (Homo sapiens, UniProt P49862); assay: Fluorescence Intensity-based biochemical primary high throughput dose response assay to identify activators of kallikrein-7 (K7) zymogen.
INS1 = assay: beta cell apoptosis inhibitors, cytokine rescue, dose response, luminescence, retest (AID 449756); type: functional, cell-based; conditions: Rattus norvegicus;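 also: cell death triggered by IL-1 beta plus TNF-alpha plus IFN-gamma mixture; protective hits raise ATP signal compared with cytokine alone wells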
[4] = Shn3 3'UTR reporter inhibitors, dose response, cell-based, Clone20 osteoblasts, firefly luciferase, cherry-picked (AID 624132); type: functional;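 also: firefly luciferase luminescence from reporter carrying the Shn3 3'UTR in osteoblasts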
[5] = Luminescence Cell-Based Dose Retest to Confirm Inhibitors of Cancer Stem Cells. [Related pubchem assays (depositor defined):AID2717, AID2721]; type: functional; conditions: Homo sapiens
[6] = HepG2 cell cytotoxicity, dose response, cytotoxicity control for Shn3 inhibitor project, CellTiter-Glo, cherry-picked (AID 624134); type: functional, cell-based
[7] = control 3'UTR Renilla luciferase suppression, dose response, counter-screen for Shn3 inhibitor project, cell-based, Clone20-Shn3RL, cherry-picked (AID 624133); type: functional
[8] = biological target: T1, Oxysterols receptor LXR-beta (Homo sapiens, UniProt P55055); type: functional, cell-based;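 also: Cell-based luminescence dose-response assay of agonist activity at LXR, run as a confirmatory counterscreen to a daf-12 agonist screen; HEK293 cells with Gal4-LXR fusion and GAL4-driven luciferase reporter; agonist potency from rising luciferase signal of a Gal4-LXR reporter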
T1 sequence (P55055 whole entry): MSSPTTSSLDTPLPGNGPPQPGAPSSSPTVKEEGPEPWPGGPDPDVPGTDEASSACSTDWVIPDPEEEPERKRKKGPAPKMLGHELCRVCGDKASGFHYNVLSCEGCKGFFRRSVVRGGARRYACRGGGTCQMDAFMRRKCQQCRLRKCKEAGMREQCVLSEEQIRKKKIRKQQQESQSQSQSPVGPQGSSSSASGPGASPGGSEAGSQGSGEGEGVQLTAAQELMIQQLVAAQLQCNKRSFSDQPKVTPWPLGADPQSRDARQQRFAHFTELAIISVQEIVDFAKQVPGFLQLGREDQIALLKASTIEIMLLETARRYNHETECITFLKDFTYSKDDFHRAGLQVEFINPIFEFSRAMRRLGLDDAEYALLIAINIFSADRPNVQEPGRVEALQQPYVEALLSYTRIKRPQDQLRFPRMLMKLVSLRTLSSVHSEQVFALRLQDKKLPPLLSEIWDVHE

[9] = biological target: T2, Rac GTPase-activating protein 1 (Homo sapiens, UniProt Q9H0H5); assay: MgcRacGAP GTPase-activating activity inhibitors, confirmation, biochemical, ADP Hunter fluorescence, primary and confirmatory (AID 624330); type: functional
T2 sequence (Q9H0H5 whole entry): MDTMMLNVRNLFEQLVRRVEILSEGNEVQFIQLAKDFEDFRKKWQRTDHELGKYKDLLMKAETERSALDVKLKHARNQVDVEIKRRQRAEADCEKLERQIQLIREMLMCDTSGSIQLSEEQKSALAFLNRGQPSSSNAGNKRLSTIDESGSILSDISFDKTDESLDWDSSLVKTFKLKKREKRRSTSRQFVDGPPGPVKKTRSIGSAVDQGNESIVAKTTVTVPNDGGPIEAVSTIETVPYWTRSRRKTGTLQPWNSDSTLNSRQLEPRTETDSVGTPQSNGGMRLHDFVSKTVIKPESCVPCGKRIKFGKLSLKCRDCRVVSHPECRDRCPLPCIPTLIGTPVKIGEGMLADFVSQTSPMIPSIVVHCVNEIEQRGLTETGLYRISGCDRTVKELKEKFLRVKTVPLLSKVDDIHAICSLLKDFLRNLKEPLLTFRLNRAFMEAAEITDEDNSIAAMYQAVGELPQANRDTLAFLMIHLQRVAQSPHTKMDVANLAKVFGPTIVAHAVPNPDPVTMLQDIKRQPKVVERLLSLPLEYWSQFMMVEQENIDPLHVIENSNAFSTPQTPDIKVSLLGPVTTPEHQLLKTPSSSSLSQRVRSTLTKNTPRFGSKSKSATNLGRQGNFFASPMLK

[10] = biological target: T3, Histone-lysine N-methyltransferase NSD2 (Homo sapiens, UniProt O96028); type: biochemical
T3 sequence (O96028 whole entry): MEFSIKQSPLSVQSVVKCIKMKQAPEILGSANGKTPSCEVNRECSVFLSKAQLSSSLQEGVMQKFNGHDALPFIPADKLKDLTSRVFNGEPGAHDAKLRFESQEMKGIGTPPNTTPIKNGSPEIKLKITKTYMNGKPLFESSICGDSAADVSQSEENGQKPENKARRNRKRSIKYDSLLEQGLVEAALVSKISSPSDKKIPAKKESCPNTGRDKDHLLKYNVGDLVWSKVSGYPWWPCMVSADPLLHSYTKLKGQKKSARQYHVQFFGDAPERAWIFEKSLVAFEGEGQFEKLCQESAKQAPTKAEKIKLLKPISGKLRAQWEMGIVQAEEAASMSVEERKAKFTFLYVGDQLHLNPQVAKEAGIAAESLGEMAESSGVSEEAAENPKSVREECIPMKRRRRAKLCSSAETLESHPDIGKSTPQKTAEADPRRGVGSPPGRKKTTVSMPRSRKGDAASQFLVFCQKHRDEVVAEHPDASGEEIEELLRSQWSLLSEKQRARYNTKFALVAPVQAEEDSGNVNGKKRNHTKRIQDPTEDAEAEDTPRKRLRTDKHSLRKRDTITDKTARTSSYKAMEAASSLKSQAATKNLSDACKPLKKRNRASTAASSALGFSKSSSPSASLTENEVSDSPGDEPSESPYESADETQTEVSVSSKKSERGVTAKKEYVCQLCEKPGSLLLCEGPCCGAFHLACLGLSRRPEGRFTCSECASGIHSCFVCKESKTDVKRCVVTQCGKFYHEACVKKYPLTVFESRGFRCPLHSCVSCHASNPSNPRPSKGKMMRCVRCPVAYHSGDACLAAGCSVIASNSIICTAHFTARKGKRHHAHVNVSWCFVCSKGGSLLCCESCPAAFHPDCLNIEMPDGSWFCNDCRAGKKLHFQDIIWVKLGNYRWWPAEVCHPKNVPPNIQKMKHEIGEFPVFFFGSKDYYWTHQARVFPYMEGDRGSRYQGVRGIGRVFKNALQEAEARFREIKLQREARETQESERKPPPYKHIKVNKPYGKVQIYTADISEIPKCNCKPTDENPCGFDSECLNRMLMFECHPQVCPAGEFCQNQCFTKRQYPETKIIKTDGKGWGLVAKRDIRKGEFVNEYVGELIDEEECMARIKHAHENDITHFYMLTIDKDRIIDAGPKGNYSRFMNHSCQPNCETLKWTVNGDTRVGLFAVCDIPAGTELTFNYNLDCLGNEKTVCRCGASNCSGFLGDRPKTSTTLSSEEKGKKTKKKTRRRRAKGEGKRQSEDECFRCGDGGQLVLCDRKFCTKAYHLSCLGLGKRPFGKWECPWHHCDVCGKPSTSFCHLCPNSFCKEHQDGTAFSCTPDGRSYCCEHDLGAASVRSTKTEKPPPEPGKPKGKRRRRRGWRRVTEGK

[11] = biological target: 1-phosphatidylinositol 4,5-bisphosphate phosphodiesterase gamma-1 (Homo sapiens, UniProt P19174); assay: Counterscreen for inhibitors of phospholipase C isozymes (PLC-B3): Fluorescence-based biochemical high throughput dose response assay to identify inhibitors of phospholipase C isozymes (PLC-gamma1).
[12] = biological target: Intestinal-type alkaline phosphatase (Homo sapiens, UniProt P09923); assay: inhibition of human intestinal alkaline phosphatase – biochemical, dose response (AID 488876); type: functional
[13] = biological target: 1-phosphatidylinositol 4,5-bisphosphate phosphodiesterase beta-3 (Homo sapiens, UniProt Q01970); assay: Fluorescence-based biochemical high throughput dose response assay to identify inhibitors of phospholipase C isozymes (PLC-B3).
[14] = biological target: T4, Zinc finger protein mex-5 (Caenorhabditis elegans, UniProt Q9XUB2); assay: MEX-5/TCR-2 RNA interaction inhibitors, dose response, biochemical, C. elegans, fluorescence polarization (AID 1960)
T4 sequence (Q9XUB2 whole entry): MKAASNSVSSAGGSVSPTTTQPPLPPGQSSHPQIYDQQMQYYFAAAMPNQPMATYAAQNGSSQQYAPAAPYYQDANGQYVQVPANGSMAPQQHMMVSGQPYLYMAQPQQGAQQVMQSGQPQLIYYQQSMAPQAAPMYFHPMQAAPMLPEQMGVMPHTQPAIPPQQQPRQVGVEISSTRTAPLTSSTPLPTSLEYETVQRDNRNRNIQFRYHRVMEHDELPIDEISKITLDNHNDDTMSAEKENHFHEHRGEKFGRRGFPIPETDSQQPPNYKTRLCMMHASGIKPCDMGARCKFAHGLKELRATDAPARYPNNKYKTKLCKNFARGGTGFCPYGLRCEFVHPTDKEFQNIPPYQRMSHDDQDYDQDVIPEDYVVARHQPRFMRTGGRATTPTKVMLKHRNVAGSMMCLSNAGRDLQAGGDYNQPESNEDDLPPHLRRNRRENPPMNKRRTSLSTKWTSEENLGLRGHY

[15] = biological target: Intestinal-type alkaline phosphatase (Mus musculus, UniProt P24822); assay: PubChem AID 488785; type: functional
[16] = biological target: T5, Alkaline phosphatase, tissue-nonspecific isozyme (Homo sapiens, UniProt P05186); assay: TNAP enzyme inhibition by screening hits, dose response, selectivity assay for mouse IAP inhibitor project, biochemical, human TNAP, uHTS hits (AID 488906); type: functional
T5 sequence (P05186 whole entry): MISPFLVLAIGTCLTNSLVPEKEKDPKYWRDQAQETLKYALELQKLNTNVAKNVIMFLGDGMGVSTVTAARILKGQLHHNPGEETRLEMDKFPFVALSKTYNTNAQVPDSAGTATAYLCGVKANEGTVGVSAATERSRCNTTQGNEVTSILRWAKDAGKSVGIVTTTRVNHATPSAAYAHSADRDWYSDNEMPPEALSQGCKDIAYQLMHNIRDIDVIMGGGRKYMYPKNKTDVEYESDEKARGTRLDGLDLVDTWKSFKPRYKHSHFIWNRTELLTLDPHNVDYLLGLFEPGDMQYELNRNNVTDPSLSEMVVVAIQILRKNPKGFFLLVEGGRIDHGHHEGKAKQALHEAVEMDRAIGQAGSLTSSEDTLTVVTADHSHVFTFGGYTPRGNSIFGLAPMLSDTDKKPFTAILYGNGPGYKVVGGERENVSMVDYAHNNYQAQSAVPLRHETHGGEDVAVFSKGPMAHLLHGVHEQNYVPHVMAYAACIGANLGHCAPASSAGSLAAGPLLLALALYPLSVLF

[17] = biological target: T6, RNA-binding protein pos-1 (Caenorhabditis elegans, UniProt G5EF15); assay: inhibitors of POS-1/mex-3 RNA binding, dose response, biochemical, fluorescence polarization (AID 1964);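 also: purified POS-1 fused to maltose binding protein made in E. coli; potency of compounds blocking POS-1 binding to fluorescent RNA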
T6 sequence (G5EF15 whole entry): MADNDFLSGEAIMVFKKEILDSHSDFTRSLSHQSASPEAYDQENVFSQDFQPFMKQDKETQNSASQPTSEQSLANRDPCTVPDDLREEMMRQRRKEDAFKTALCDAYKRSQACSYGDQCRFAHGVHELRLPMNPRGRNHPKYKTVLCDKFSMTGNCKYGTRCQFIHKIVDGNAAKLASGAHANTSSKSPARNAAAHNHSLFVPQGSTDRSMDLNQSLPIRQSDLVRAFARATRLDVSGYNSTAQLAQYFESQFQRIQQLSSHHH

Sequence of RNA-editing ligase 1, mitochondrial (P86926 whole entry): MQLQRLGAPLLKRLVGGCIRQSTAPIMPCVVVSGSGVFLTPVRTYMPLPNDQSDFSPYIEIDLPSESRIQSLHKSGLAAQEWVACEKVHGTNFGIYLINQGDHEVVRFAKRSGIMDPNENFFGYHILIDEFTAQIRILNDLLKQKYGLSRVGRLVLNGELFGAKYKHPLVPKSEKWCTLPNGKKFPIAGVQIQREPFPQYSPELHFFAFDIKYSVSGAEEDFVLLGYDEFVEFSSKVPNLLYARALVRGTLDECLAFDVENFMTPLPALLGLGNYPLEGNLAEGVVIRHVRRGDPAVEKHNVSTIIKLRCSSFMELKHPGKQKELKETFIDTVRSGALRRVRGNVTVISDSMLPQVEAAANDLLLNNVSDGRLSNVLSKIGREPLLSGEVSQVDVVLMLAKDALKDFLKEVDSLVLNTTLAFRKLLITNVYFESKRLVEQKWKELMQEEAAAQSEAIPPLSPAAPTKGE
Sequence of Kallikrein-7 (P49862 whole entry): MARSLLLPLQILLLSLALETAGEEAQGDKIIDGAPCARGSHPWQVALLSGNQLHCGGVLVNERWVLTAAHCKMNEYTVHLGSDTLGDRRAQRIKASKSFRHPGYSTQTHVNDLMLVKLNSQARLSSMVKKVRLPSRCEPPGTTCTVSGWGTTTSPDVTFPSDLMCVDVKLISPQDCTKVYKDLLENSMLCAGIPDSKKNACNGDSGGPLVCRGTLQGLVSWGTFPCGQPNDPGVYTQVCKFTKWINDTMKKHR
Sequence of Protein Tat (P04608 whole entry): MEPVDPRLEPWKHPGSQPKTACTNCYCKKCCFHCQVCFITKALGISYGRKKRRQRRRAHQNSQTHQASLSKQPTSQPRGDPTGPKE
Sequence of Intestinal-type alkaline phosphatase (Homo sapiens, UniProt P09923) (P09923 whole entry): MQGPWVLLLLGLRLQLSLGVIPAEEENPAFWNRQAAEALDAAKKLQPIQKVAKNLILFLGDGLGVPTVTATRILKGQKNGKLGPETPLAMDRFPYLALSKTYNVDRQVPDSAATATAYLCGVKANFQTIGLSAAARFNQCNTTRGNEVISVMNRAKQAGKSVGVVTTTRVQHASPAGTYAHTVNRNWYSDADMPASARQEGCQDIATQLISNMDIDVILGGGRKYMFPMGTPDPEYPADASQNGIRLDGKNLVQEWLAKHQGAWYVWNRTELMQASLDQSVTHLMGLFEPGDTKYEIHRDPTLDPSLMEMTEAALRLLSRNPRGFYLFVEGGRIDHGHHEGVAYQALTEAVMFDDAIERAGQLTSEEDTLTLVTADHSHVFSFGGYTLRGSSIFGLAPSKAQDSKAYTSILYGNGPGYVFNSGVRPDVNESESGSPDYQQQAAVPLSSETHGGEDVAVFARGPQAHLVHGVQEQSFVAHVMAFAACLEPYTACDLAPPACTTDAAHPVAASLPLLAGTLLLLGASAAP
Sequence of Nonstructural protein 1 (Q194T2 whole entry): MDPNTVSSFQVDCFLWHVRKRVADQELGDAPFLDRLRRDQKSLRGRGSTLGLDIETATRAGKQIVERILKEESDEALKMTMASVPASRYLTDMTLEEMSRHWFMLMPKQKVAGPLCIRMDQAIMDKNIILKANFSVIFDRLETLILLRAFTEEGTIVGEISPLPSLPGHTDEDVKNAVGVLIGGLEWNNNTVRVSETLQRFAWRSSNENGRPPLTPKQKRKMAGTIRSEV
Sequence of 1-phosphatidylinositol 4,5-bisphosphate phosphodiesterase beta-3 (Q01970 whole entry): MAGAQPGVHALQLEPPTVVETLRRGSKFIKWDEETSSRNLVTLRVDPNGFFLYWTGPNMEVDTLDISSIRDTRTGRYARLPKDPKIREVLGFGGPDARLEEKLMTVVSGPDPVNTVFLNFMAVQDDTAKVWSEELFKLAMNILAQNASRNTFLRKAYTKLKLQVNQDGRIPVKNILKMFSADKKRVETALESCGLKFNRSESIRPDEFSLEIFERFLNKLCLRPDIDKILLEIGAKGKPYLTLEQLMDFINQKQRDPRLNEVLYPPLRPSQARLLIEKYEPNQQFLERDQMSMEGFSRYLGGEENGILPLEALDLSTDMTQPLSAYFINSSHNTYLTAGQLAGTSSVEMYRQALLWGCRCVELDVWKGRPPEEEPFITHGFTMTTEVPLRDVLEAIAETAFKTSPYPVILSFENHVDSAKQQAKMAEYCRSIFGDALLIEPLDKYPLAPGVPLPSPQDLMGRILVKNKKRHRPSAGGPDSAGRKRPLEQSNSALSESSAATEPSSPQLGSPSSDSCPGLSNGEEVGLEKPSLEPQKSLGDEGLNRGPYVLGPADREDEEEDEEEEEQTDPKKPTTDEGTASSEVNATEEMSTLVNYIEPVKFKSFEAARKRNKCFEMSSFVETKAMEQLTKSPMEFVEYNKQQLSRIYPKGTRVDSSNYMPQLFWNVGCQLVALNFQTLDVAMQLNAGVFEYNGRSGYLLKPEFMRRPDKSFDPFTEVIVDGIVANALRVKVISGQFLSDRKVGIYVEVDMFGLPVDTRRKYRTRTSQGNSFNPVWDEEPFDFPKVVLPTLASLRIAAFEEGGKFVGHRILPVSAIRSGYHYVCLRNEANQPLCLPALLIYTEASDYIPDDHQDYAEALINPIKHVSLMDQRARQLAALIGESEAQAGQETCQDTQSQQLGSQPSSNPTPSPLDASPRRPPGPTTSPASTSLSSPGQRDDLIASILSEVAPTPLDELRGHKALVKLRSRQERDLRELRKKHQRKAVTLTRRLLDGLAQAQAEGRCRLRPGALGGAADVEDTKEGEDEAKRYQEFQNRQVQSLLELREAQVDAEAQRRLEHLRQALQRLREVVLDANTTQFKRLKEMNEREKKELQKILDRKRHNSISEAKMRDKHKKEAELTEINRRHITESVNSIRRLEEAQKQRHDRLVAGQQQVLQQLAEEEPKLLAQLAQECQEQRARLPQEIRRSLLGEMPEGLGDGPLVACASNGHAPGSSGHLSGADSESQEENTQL
Sequence of 1-phosphatidylinositol 4,5-bisphosphate phosphodiesterase gamma-1 (P19174 whole entry): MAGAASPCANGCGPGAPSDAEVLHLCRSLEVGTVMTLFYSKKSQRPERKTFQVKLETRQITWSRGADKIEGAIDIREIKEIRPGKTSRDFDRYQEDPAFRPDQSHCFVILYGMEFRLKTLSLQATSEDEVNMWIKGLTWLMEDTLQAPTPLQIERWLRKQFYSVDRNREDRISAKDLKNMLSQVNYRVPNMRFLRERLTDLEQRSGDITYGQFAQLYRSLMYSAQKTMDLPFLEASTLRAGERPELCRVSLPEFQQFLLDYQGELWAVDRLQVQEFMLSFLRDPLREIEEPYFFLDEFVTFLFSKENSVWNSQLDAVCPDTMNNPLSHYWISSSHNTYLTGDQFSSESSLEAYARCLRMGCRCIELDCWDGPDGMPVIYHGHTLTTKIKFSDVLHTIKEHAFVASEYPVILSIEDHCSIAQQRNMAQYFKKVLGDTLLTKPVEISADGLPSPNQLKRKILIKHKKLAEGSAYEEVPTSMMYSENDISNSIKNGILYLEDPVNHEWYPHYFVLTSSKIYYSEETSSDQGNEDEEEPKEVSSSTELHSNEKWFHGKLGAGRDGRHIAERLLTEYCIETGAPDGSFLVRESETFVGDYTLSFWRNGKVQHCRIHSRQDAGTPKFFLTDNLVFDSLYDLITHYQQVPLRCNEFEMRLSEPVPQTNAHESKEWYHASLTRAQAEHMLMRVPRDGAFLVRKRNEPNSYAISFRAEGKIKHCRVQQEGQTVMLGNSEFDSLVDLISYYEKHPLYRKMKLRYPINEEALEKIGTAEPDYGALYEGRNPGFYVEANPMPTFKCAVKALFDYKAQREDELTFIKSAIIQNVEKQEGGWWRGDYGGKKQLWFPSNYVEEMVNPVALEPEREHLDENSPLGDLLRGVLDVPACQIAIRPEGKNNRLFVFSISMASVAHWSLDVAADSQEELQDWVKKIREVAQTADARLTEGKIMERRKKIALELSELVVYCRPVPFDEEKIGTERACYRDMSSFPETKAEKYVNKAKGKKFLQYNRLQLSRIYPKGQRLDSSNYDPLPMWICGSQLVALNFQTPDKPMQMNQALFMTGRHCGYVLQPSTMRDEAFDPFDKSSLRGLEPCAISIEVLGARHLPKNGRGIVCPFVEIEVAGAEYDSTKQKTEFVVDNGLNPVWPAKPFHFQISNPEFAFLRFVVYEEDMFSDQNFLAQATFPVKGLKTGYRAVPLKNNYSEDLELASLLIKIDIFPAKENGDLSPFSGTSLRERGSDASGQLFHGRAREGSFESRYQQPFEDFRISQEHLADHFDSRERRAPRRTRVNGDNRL
Sequence of Intestinal-type alkaline phosphatase (Mus musculus, UniProt P24822) (P24822 whole entry): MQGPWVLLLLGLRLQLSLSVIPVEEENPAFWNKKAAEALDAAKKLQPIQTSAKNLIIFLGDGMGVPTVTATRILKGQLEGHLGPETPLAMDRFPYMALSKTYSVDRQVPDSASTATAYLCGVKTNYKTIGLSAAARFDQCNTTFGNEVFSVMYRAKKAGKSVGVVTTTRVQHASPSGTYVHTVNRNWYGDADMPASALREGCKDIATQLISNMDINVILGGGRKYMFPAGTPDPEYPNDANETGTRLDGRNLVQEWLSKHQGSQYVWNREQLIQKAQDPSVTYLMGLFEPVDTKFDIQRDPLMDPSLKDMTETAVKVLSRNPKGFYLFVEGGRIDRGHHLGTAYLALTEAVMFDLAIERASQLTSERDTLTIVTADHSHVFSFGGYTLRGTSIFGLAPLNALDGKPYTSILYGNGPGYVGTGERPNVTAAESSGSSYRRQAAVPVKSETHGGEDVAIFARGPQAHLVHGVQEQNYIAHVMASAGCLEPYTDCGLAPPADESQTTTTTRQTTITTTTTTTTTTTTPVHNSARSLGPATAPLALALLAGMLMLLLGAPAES

## O=C1C(NS(=O)(=O)c2ccc(Br)s2)=C(N2CCCCC2)C(=O)c2ccccc21
[1]
  AC50: > 70 µM (inactive)
[2]
  AC50: > 70 µM (inactive)

## Cc1cc(/C=C2\SC(=S)NC2=O)c(C)n1-c1ccccc1
cells
  EC50: > 67.6 µM (inactive)

## Oc1ccccc1C=Nc1ccc(F)c2c(O)[nH]nc12
Nonstructural protein 1
  IC50: 41.6 µM (active)
Protein Tat
  IC50: 3.3 µM (inconclusive)

## CC(=O)Nc1ccc(NC(=O)CSCc2cnn(-c3ccccc3)c2-n2cccc2)cc1
Protein Tat
  IC50: > 100 µM (active)

## COC(=O)C1=C(C)N(Cc2ccc(C(F)(F)F)cc2)C(NCc2cccc(C(F)(F)F)c2)=NC1c1ccccc1C(F)(F)F (configuration not stated)
[3]
  IC50: > 96.6 µM (inactive)

## O=C(Nc1ncc2c(n1)-c1ccccc1OC2)c1ccc(F)cc1
Kallikrein-7
  EC50: > 69.5 µM (inactive)

## COc1ccc(C(CCNCc2ccc(OC(C)C)cc2)c2ccccc2OC)cc1 (configuration not stated)
INS1
  AC50: 7.21 µM (active)
[4]
  AC50: 6.44 µM (active)
[3]
  IC50: > 96.6 µM (inactive)
[5]
  AC50: 5.99 µM (active)
[6]
  AC50: 15.3 µM (active)
[7]
  AC50: 4.38 µM (active)

## COc1cccc(C2=C(NC(=O)c3ccccc3)C(=O)c3ccccc3C2=O)c1
[1]
  AC50: 21 µM (active)
[2]
  AC50: 10.5 µM (active)

## CCc1ccccc1NC(=O)CSc1nc2nnc(C)c-2c(N)n1-c1ccc(OC)cc1
Kallikrein-7
  EC50: 4.1 µM (active)

## Cc1cc(/C=C2\SC(=S)N=C2O)c(C)n1-c1ccccc1
[8]
  EC50: > 67.6 µM (inactive)

## O=C(/C=C/c1ccco1)NC(=S)Nc1ccc(C(=O)O)cc1
[9]
  IC50: 147 µM (active)
[10]
  AC50: 13 µM (active)
[11]
  IC50: > 122 µM (inactive)
[12]
  IC50: 21.8 µM (active)
[13]
  IC50: > 122 µM (inactive)
[14]
  EC50: 12.8 µM (active)
[15]
  IC50: 2.97 µM (active)
[16]
  IC50: 45 µM (active)
[17]
  EC50: 8.75 µM (active)
